Data published in patent US10150760B2, “Compounds for use in preparing heterocyclic triazole agonists of the APJ receptor” (AMGEN INC., priority 2016, dated 2018).

Molecular target: human APJ receptor (Homo sapiens (Human), UniProt P35414)
Experiment: [35S]GTPγS binding assay on membranes from CHO cells stably expressing human APJ receptor
Assay type: biochemical
Conditions: read-out: Activity hAPJ SPA EC50 IP
Procedure: The human APJ receptor was cloned by polymerase chain reaction and the gene encoding the receptor was subcloned in pFLAG-CMV™-3 expression vector (Sigma, Saint Louis, Mo. USA) in-house at Amgen. A GTPγS binding assay was performed on membranes prepared from CHO cells stably expressing human APJ receptor. The optimum experimental conditions for the concentrations of GDP, MgCl2, and NaCl in the assay buffer were initially determined. The assay was performed in assay buffer [20 mM HEPES, pH 7.5, 5 mM MgCl2, and 0.1% (w/v) BSA with 200 mM NaCl, 3 μM GDP] and membranes expressing human APJ receptor/well along with WGA PS beads. The reaction was initiated by addition of 0.2 nM [^35S]GTPγS (Perkin Elmer Life and Analytical Sciences, Waltham USA) in the absence or presence of various ligands and incubated at RT for 90 min. Nonspecific binding was determined in the presence of 100 μM GTPγS and was always less than 0.2% of total binding. All the results presented are means of several independent experiments and analyzed by non-linear regression methods using commercially available program Prism (GraphPad, San Diego, Calif.) to obtain EC50 detailed in Table 38.

human APJ receptor, sequence (P35414 whole entry): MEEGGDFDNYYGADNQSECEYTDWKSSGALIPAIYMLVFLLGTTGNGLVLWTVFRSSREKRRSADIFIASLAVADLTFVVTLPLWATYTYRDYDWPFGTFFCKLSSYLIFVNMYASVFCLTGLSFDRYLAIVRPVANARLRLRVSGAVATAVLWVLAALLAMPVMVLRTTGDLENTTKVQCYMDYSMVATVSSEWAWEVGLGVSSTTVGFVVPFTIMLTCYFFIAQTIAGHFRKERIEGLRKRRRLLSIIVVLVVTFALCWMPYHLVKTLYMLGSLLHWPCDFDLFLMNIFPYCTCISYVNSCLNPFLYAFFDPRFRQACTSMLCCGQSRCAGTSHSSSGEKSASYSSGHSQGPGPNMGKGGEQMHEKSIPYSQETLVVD

SMILES | EC50 [nM]
COc1cccc(OC)c1-n1c(NS(=O)(=O)[C@@H](C)[C@H](OC)c2ncc(Cl)cn2)nnc1[C@H]1CCCO1 (single isomer, unassigned) [Example 52.0, (1R,2S)-1-(5-chloropyrimidin-2-yl)-N-(4-(2,6-dimethoxyphenyl)-5-((R)-tetrahydrofuran-2-yl)-4H-1,2,4-triazol-3-yl)-1-methoxypropane-2-sulfonamide or (1R,2S)-1-(5-chloropyrimidin-2-yl)-N-(4-(2,6-dimethoxyphenyl)-5-((S)-tetrahydrofuran-2-yl)-4H-1,2,4-triazol-3-yl)-1-methoxypropane-2-sulfonamide] | 20
COc1cccc(OC)c1-n1c(NS(=O)(=O)[C@@H](C)[C@H](C)c2ncc(C)cn2)nnc1[C@H]1CCOC1 (single isomer, unassigned) [Example 54.0, (2S,3R)-N-(4-(2,6-dimethoxyphenyl)-5-((R)-tetrahydrofuran-3-yl)-4H-1,2,4-triazol-3-yl)-3-(5-methylpyrimidin-2-yl)butane-2-sulfonamide or (2S,3R)-N-(4-(2,6-dimethoxyphenyl)-5-((S)-tetrahydrofuran-3-yl)-4H-1,2,4-triazol-3-yl)-3-(5-methylpyrimidin-2-yl)butane-2-sulfonamide] | 37
COc1cccc(OC)c1-n1c(NS(=O)(=O)[C@@H](C)[C@H](C)c2ncc(C)cn2)nnc1[C@H]1CCOC1 (single isomer, unassigned) [Example 55.0, (2S,3R)-N-(4-(2,6-dimethoxyphenyl)-5-((R)-tetrahydrofuran-3-yl)-4H-1,2,4-triazol-3-yl)-3-(5-methylpyrimidin-2-yl)butane-2-sulfonamide or (2S,3R)-N-(4-(2,6-dimethoxyphenyl)-5-((S)-tetrahydrofuran-3-yl)-4H-1,2,4-triazol-3-yl)-3-(5-methylpyrimidin-2-yl)butane-2-sulfonamide] | 66
COc1cccc(OC)c1-n1c(NS(=O)(=O)[C@@H](C)[C@H](C)c2ncc(C)cn2)nnc1[C@H]1CCCOC1 (single isomer, unassigned) [Example 58.0, (2S,3R)-N-(4-(2,6-dimethoxyphenyl)-5-((R)-tetrahydro-2H-pyran-3-yl)-4H-1,2,4-triazol-3-yl)-3-(5-methylpyrimidin-2-yl)butane-2-sulfonamide or (2S,3R)-N-(4-(2,6-dimethoxyphenyl)-5-((S)-tetrahydro-2H-pyran-3-yl)-4H-1,2,4-triazol-3-yl)-3-(5-methylpyrimidin-2-yl)butane-2-sulfonamide] | 120
COc1cccc(OC)c1-n1c(NS(=O)(=O)[C@@H](C)[C@H](C)c2ncc(C)cn2)nnc1[C@H]1CCCOC1 (single isomer, unassigned) [Example 59.0, (2S,3R)-N-(4-(2,6-dimethoxyphenyl)-5-((R)-tetrahydro-2H-pyran-3-yl)-4H-1,2,4-triazol-3-yl)-3-(5-methylpyrimidin-2-yl)butane-2-sulfonamide or (2S,3R)-N-(4-(2,6-dimethoxyphenyl)-5-((S)-tetrahydro-2H-pyran-3-yl)-4H-1,2,4-triazol-3-yl)-3-(5-methylpyrimidin-2-yl)butane-2-sulfonamide] | 16
COc1cccc(OC)c1-n1c(NS(=O)(=O)[C@@H](C)[C@H](C)c2ncc(Cl)cn2)nnc1[C@H]1CCCOC1 (single isomer, unassigned) [Example 62.0, (2S,3R)-3-(5-chloropyrimidin-2-yl)-N-(4-(2,6-dimethoxyphenyl)-5-((R)-tetrahydro-2H-pyran-3-yl)-4H-1,2,4-triazol-3-yl)butane-2-sulfonamide or (2S,3R)-3-(5-chloropyrimidin-2-yl)-N-(4-(2,6-dimethoxyphenyl)-5-((S)-tetrahydro-2H-pyran-3-yl)-4H-1,2,4-triazol-3-yl)butane-2-sulfonamide] | 26
